These results are taken from patent US12331040B2 (Karyopharm Therapeutics Inc., priority 2013, dated 2025).

Test in all cases: MTT cell proliferation assay
Format in all cases: cell-based

Assay [1] relates to Z138 cells. Conditions: Homo sapiens, Z-138, Z138 cells, approximately 64-72 hours incubation. In short, it runs like this:
(§1)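 5,000-10,000 cells/well, overnight attach; 8 conc., 1 nM–30 μM; MTT ~4 h; formazan solubilized, OD 490 nm; % inhibition = (1−(ODo/OD))×100 vs neg. control; mostly duplicate, mean±SE.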

The test system of assay [2] is 3T3 cells. Conditions: Mus musculus, NIH3T3, approximately 64-72 hours incubation. Put shortly: as §1
Assay [3] deals with MS751 cells. Conditions: Homo sapiens, MS751, MS751 cells, approximately 64-72 hours incubation. Put shortly:
as §1

[4] abbreviates: read-out: MTT Assay IC50 MS-751.
Setting [5] is: read-out: MTT Assay IC50, Z-138.
Setting [6] is: read-out: MTT Assay IC50, MS-751.

Like-named read-outs stand apart in the source and are kept apart here. Bounds are passed on as bounds.

Broadly, the IC50 is the concentration at which inhibition is half-maximal.

`CN1CCN(C(=O)c2ccc(-c3cc(C(F)(F)F)c4oc(CNC(=O)/C=C/c5ccc(N)nc5)cc4c3)nc2)CC1` [Compound 565, (E)-3-(6-aminopyridin-3-yl)-N-((5-(5-(4-methylpiperazine-1-carbonyl)pyridin-2-yl)-7-(trifluoromethyl)benzofuran-2-yl)methyl)acrylamide]: the IC50 in assay [1] (read-out: MTT Assay IC50 Z-138) was below 0.1 µM; in assay [2] (read-out: MTT Assay IC50 3T3), 0.1 to 5 µM; in assay [3] (setting [4]) it was below 0.1 µM.
Turning to `CC1(C)CN(C(=O)c2ccc(-c3cc(Cl)c4oc(CNC(=O)/C=C/c5ccc(N)nc5)cc4c3)cc2)C1` [Compound 529, (E)-3-(6-aminopyridin-3-yl)-N-((7-chloro-5-(4-(3,3-dimethylazetidine-1-carbonyl)phenyl)benzofuran-2-yl)methyl)acrylamide], the IC50 in assay [1] (read-out: MTT Assay IC50 Z-138) is 0.1 to 5 µM; in assay [2] (read-out: MTT Assay IC50 3T3) it was above 10 µM; in assay [3] (setting [4]), 5 to 10 µM.
The corresponding values for `Nc1ccc(/C=C/C(=O)NCc2cc3cc(-c4ccc(C(=O)N5CC[C@@H](F)C5)cc4)cc(Cl)c3o2)cn1` [Compound 523, (R,E)-3-(6-aminopyridin-3-yl)-N-((7-chloro-5-(4-(3-fluoropyrrolidine-1-carbonyl)phenyl)benzofuran-2-yl)methyl)acrylamide] are above 10 µM, above 10 µM and above 10 µM.
For `CS(=O)(=O)c1ccc(-c2cc(-c3ccc(F)cc3)c3oc(CNC(=O)/C=C/c4ccc(N)nc4)cc3c2)cc1` [Compound 693, (E)-3-(6-aminopyridin-3-yl)-N-((7-(4-fluorophenyl)-5-(4-(methylsulfonyl)phenyl)benzofuran-2-yl)methyl)acrylamide], the half-maximal inhibitory concentration (IC50) is below 0.1 µM in assay [1] (setting [5]); 0.1 to 5 µM in assay [2] (read-out: MTT Assay IC50, 3T3); below 0.1 µM in assay [3] (setting [6]).
Turning to `Nc1ccc(/C=C/C(=O)NCc2cc3cc(-c4ncc(C(=O)N5CCNCC5)cn4)cc(Cl)c3o2)cn1` [Compound 649, (E)-3-(6-aminopyridin-3-yl)-N-((7-chloro-5-(5-(piperazine-1-carbonyl)pyrimidin-2-yl)benzofuran-2-yl)methyl)acrylamide], the results for the IC50 in assay [1] (read-out: MTT Assay IC50 Z-138), in assay [2] (read-out: MTT Assay IC50 3T3) and in assay [3] (setting [4]) were 0.1 to 5 µM, above 10 µM and 0.1 to 5 µM, respectively.
Turning to `Nc1ccc(/C=C/C(=O)NCc2cc3cc(-c4ccc(OC(=O)N5CCOCC5)cc4)cc(Cl)c3o2)cn1` [Compound 556, (E)-4-(2-((3-(6-aminopyridin-3-yl)acrylamido)methyl)-7-chlorobenzofuran-5-yl)phenyl morpholine-4-carboxylate], the figures for the IC50 in assay [1] (read-out: MTT Assay IC50 Z-138), in assay [2] (read-out: MTT Assay IC50 3T3) and in assay [3] (setting [4]) were 0.1 to 5 µM, above 10 µM and 0.1 to 5 µM, respectively.
Take `Nc1ccc(/C=C/C(=O)NCc2cc3cc(-c4ccc(F)c(C(=O)N5CCOCC5)n4)cc(C(F)(F)F)c3o2)cn1` [Compound 579, (E)-3-(6-aminopyridin-3-yl)-N-((5-(5-fluoro-6-(morpholine-4-carbonyl)pyridin-2-yl)-7-(trifluoromethyl)benzofuran-2-yl)methyl)acrylamide]: the IC50 is below 0.1 µM in assay [1] (read-out: MTT Assay IC50 Z-138), above 10 µM in assay [2] (read-out: MTT Assay IC50 3T3) and below 0.1 µM in assay [3] (setting [4]).
In the case of `O=C(/C=C/c1cccnc1)NCc1cc2cc(-c3ccc(C(=O)N4CCC(F)(F)CC4)cn3)cc(-c3cccc(F)c3)c2o1` [Compound 720, (E)-N-((5-(5-(4,4-difluoropiperidine-1-carbonyl)pyridin-2-yl)-7-(3-fluorophenyl)benzofuran-2-yl)methyl)-3-(pyridin-3-yl)acrylamide], the half-maximal inhibitory concentration (IC50) is below 0.1 µM in assay [1] (setting [5]); below 0.1 µM in assay [2] (read-out: MTT Assay IC50, 3T3); below 0.1 µM in assay [3] (setting [6]).
Consider `Nc1ccc(/C=C/C(=O)NCc2cc3cc(-c4ccc(C(=O)N5CCOCC5)cc4)cc(C(F)F)c3o2)cn1` [Compound 557, (E)-3-(6-aminopyridin-3-yl)-N-((7-(difluoromethyl)-5-(4-(morpholine-4-carbonyl)phenyl)benzofuran-2-yl)methyl)acrylamide], for which the figures for the concentration for half-maximal inhibition (IC50) in assay [1] (read-out: MTT Assay IC50 Z-138), in assay [2] (read-out: MTT Assay IC50 3T3) and in assay [3] (setting [4]) were 0.1 to 5 µM, above 10 µM and 0.1 to 5 µM, respectively.
Turning to `Nc1ccc(/C=C/C(=O)NCc2cc3cc(-c4ccc(C(=O)N5CCC(O)(C(F)(F)F)C5)cn4)cc(C(F)(F)F)c3o2)cn1` (stereo not drawn) [Compound 613, (E)-3-(6-aminopyridin-3-yl)-N-((5-(5-(3-hydroxy-3-(trifluoromethyl)pyrrolidine-1-carbonyl)pyridin-2-yl)-7-(trifluoromethyl)benzofuran-2-yl)methyl)acrylamide], the IC50 in assay [1] (read-out: MTT Assay IC50 Z-138) is below 0.1 µM; in assay [2] (read-out: MTT Assay IC50 3T3) it was above 10 µM; in assay [3] (setting [4]) it was 0.1 to 5 µM.
The corresponding values for `Nc1ccc(/C=C/C(=O)NCc2cc3cc(-c4ccc(C(=O)N5CC[C@H](Cl)C5)cn4)cc(C(F)(F)F)c3o2)cn1` [Compound 618, (S,E)-3-(6-aminopyridin-3-yl)-N-((5-(5-(3-chloropyrrolidine-1-carbonyl)pyridin-2-yl)-7-(trifluoromethyl)benzofuran-2-yl)methyl)acrylamide] are 0.1 to 5 µM, above 10 µM and 0.1 to 5 µM.
`O=C(/C=C/c1cccnc1)NCc1cc2cc(-c3ccc(C(=O)N4CCOCC4)cc3)cc(Cl)c2o1` [Compound 538, (E)-N-((7-chloro-5-(4-(morpholine-4-carbonyl)phenyl)benzofuran-2-yl)methyl)-3-(pyridin-3-yl)acrylamide]: the half-inhibitory concentration (IC50) in assay [1] (read-out: MTT Assay IC50 Z-138), in assay [2] (read-out: MTT Assay IC50 3T3) and in assay [3] (setting [4]) was 0.1 to 5 µM each time.
On to `Nc1ccc(/C=C/C(=O)NCc2cc3cc(-c4ccc(C(=O)N5CCC(F)(F)CC5)cc4F)cc(-c4cccc(F)c4)c3o2)cn1` [Compound 755, (E)-3-(6-aminopyridin-3-yl)-N-((5-(4-(4,4-difluoropiperidine-1-carbonyl)-2-fluorophenyl)-7-(3-fluorophenyl)benzofuran-2-yl)methyl)acrylamide], for which the IC50 in assay [1] (setting [5]) is below 0.1 µM; in assay [2] (read-out: MTT Assay IC50, 3T3) it was 0.1 to 5 µM; in assay [3] (setting [6]), 0.1 to 5 µM.
`CC1(F)CCN(C(=O)c2ccc(-c3cc(C(F)(F)F)c4oc(CNC(=O)/C=C/c5ccc(N)nc5)cc4c3)cc2)C1` (single isomer, unassigned) [Compound 715, (E)-3-(6-aminopyridin-3-yl)-N-((5-(4-(3-fluoro-3-methylpyrrolidine-1-carbonyl)phenyl)-7-(trifluoromethyl)benzofuran-2-yl)methyl)acrylamide]: the IC50 in assay [1] (setting [5]) is 0.1 to 5 µM; in assay [2] (read-out: MTT Assay IC50, 3T3), above 10 µM; in assay [3] (setting [6]) it was 0.1 to 5 µM.
With `Nc1ccc(/C=C/C(=O)NCc2cc3cc(-c4ccc(C(=O)NC5CCC(F)(F)CC5)cn4)cc(C(F)(F)F)c3o2)cn1` [Compound 629, (E)-6-(2-((3-(6-aminopyridin-3-yl)acrylamido)methyl)-7-(trifluoromethyl)benzofuran-5-yl)-N-(4,4-difluorocyclohexyl)nicotinamide], the half-maximal inhibitory concentration (IC50) is 0.1 to 5 µM in assay [1] (read-out: MTT Assay IC50 Z-138), above 10 µM in assay [2] (read-out: MTT Assay IC50 3T3) and 0.1 to 5 µM in assay [3] (setting [4]).
As to `Nc1ccc(/C=C/C(=O)NCc2cc3cc(-c4ccc(C(=O)NNc5cnccn5)cc4)cc(Cl)c3o2)cn1` [Compound 505, (E)-3-(6-aminopyridin-3-yl)-N-((7-chloro-5-(4-(2-(pyrazin-2-yl)hydrazine-1-carbonyl)phenyl)benzofuran-2-yl)methyl)acrylamide], the IC50 in assay [1] (read-out: MTT Assay IC50 Z-138) is 0.1 to 5 µM; in assay [2] (read-out: MTT Assay IC50 3T3), above 10 µM; in assay [3] (setting [4]), 0.1 to 5 µM.
As to `CC1(C)CN(S(=O)(=O)c2ccc(-c3cc(Cl)c4oc(CNC(=O)/C=C/c5ccc(N)nc5)cc4c3)cc2)C1` [Compound 555, (E)-3-(6-aminopyridin-3-yl)-N-((7-chloro-5-(4-(3,3-dimethylazetidin-1-ylsulfonyl)phenyl)benzofuran-2-yl)methyl)acrylamide], the IC50 in assay [1] (read-out: MTT Assay IC50 Z-138) is 0.1 to 5 µM; in assay [2] (read-out: MTT Assay IC50 3T3), above 10 µM; in assay [3] (setting [4]) it was 0.1 to 5 µM.
With `COc1cc(-c2ccc(C(=O)N3CCOCC3)cn2)cc2cc(CNC(=O)/C=C/c3ccc(N)nc3)oc12` [Compound 640, (E)-3-(6-aminopyridin-3-yl)-N-((7-methoxy-5-(5-(morpholine-4-carbonyl)pyridin-2-yl)benzofuran-2-yl)methyl)acrylamide], the 50% inhibitory concentration (IC50) in assay [1] (read-out: MTT Assay IC50 Z-138) was below 0.1 µM; in assay [2] (read-out: MTT Assay IC50 3T3), above 10 µM; in assay [3] (setting [4]), below 0.1 µM.
As to `Nc1ccc(/C=C/C(=O)NCc2cc3cc(-c4ccc(S(=O)(=O)N5CCC(F)(F)CC5)cc4)cc(C(F)(F)F)c3o2)cn1` [Compound 679, (E)-3-(6-aminopyridin-3-yl)-N-((5-(4-((4,4-difluoropiperidin-1-yl)sulfonyl)phenyl)-7-(trifluoromethyl)benzofuran-2-yl)methyl)acrylamide], the IC50 in assay [1] (setting [5]) was 0.1 to 5 µM; in assay [2] (read-out: MTT Assay IC50, 3T3), 0.1 to 5 µM; in assay [3] (setting [6]) it was 0.1 to 5 µM.
Take `Nc1ccc(/C=C/C(=O)NCc2cc3cc(-c4ccc(C(=O)N5CCC(F)(F)CC5)cc4F)cc(-c4cccc(Cl)c4)c3o2)cn1` [Compound 756, (E)-3-(6-aminopyridin-3-yl)-N-((7-(3-chlorophenyl)-5-(4-(4,4-difluoropiperidine-1-carbonyl)-2-fluorophenyl)benzofuran-2-yl)methyl)acrylamide]: the IC50 in assay [1] (setting [5]) is below 0.1 µM; in assay [2] (read-out: MTT Assay IC50, 3T3), above 10 µM; in assay [3] (setting [6]), below 0.1 µM.
Take `Nc1ccc(/C=C/C(=O)NCc2cc3cc(-c4ccc(F)c(C(=O)N5CCOCC5)n4)cc(Cl)c3o2)cn1` [Compound 581, (E)-3-(6-aminopyridin-3-yl)-N-((7-chloro-5-(5-fluoro-6-(morpholine-4-carbonyl)pyridin-2-yl)benzofuran-2-yl)methyl)acrylamide]: the IC50 was below 0.1 µM in assay [1] (read-out: MTT Assay IC50 Z-138), above 10 µM in assay [2] (read-out: MTT Assay IC50 3T3) and below 0.1 µM in assay [3] (setting [4]).
